Where two headings read alike, the source gives them in different places.
Columns and labels:
[1] = system: HGC-27 xenograft; test: HGC-27 tumor xenograft model; type: in vivo, BALB/c nude mice; conditions: p.o., bid, 14 days, HGC-27 xenograft
Description: 4-week-old male BALB/c nude mice weighing 18g–22 g were injected with 100 μL HGC-27 cells (2 × 10^6 cells) to establish an undifferentiated gastric cancer model.
(A) Tumor volumes plotted as mean ± SEM. (B) Mice weight curve during treatment plotted as mean ± SD. (C,D) Tumor weight and size on the final day.

[2] = system: GES-1; set-up: method as in Feng et al., 2022; conditions: GES-1 normal cells, previous work; ref Feng et al., 2022; cited from earlier work
[3] = system: HCC-1806; test: MTT cytotoxicity / anti-proliferation assay; type: cell-based; conditions: Homo sapiens, HCC1806, 72 h, HCC-1806, MTT, read-out: IC50, cancer cell viability
[4] = system: MDA-MB-468; test: MTT cytotoxicity / anti-proliferation assay; type: cell-based; conditions: Homo sapiens, MDA-MB-468, 72 h, MDA-MB-468, MTT, read-out: IC50, cancer cell viability
[5] = system: AGS; set-up: method as in Feng et al., 2022; conditions: previous work, ref Feng et al., 2022; cited from earlier work
[6] = system: MDA-MB-231; test: MTT cytotoxicity / anti-proliferation assay; type: cell-based; conditions: Homo sapiens, MDA-MB-231, 72 h, MDA-MB-231, MTT, read-out: IC50, cancer cell viability
[7] = system: HGC-27 cells; test: MTT cytotoxicity / anti-proliferation assay; type: cell-based, human; conditions: Homo sapiens, HGC-27, 72 h, HGC-27, MTT, read-out: IC50, cancer cell viability
Description: Undifferentiated human gastric cancer cell line (HGC-27) was purchased from the China Center for Type Collection (CCTCC, China) and used with 10% Foetal Bovine Serum (FBS, Gemini, Bio-Product, CA, United States), 1% penicillin streptomycin (PS) and 89% 1,640 medium ([…]) for culture. All cells were incubated at 37°C in a constant temperature incubator containing 95% air and 5% CO2.
To evaluate the cytotoxicity of F8 and related organic salts on HGC-27 cells, MTT analysis was performed. HGC-27 cells were digested with trypsin, then cells were spread into 96-well plates at a density of 3,000 cells/well and incubated for 12–16 h. After 12 h, the medium in 96-well plates was replaced with compounds containing 1, 0.5, 0.25, 0.125, 0.062, 0.0312 μM for another 72 h. Three days later, 20 μL MTT solution was added and incubated at 37°C for 4 h. Then 150 μL DMSO solution was added to each well after the fluid was removed, and the absorbance was detected by microplate reader. The compound dissolved in DMSO was added to the cell medium so that the final concentration of DMSO was less than 0.4%.
Infinite proliferation is one of the most prominent features of cancer cells, therefore, we evaluated the anti-proliferation activity of compounds F8 and related organic salts against human gastric carcinoma HGC-27 via MTT assay.

[8] = system: MGC-803; set-up: method as in Feng et al., 2022; conditions: MGC-803, previous work; ref Feng et al., 2022; cited from earlier work
[9] = system: SK-Hep-1; test: MTT cytotoxicity / anti-proliferation assay; type: cell-based; conditions: SK-Hep-1, MTT, 72 h; read-out: IC50, cancer cell viability
[10] = Pharmacokinetic study; type: in vivo, SD rats; conditions: SD rats; for Cmax: read-out: Cmax
Description: 7–8-week Male SD rats weighing 180–220 g were allowed for this experiment. The rats were fasted 12 h except for water. The solution was administered to rats by intravenous injection of 10% ethanol +10% solutol as solvent and intragastric injection of 5% castor oil +5% solutol as solvent. The dose concentration was 8 mg/mL for intravenous injection and 10 mg/mL for gavage.
Twelve male SD rats were divided into 4 groups with 3 rats in each group. Group 1 was F8-intravenous injection group, the dose was 20 mg/kg; Group 2 was F8- intragastric administration group, the dose was 100 mg/kg; Group 3 was F8·2HCl-intragastric administration group, the dose was 100 mg/kg. Blank blood was collected before administration, and blood was collected at predetermined time points after administration:
Intravenous injection group: before administration, 2 min, 5 min, 15 min, 30 min, 1 h, 2 h, 4 h, 8 h, 12 h, 24 h. Intragastric administration group: Before administration, 5 min, 15 min, 30 min, 1 h, 2 h, 4 h, 6 h, 8 h, 12 h, 24 h. About 0.5 mL of blood was collected and placed in an EDTA-K2 tube at […]. The plasma was centrifuged and stored at −80°C. The samples were detected by liquid-mass spectrometry analysis system. The chromatographic column used was ODS-C18 (4.6 × 50 mm, 3 µm). The chromatographic conditions were as follows: Mobile phase A is aqueous phase, […] (including 0.1% formic acid); Mobile phase B is organic, 95% acetonitrile (containing 0.1% formic acid). Flow rate of 0.4 mL/min, column temperature: room temperature, according to the drug plasma concentration data, calculated pharmacokinetic parameters using DAS 2.0 software.
After oral administration, drugs need to go through four stages, namely, absorption, distribution, metabolism and excretion. However, the changes in solubility of drugs after salting only affect the absorption stage. Since absorption is accompanied by a dissolution process, the water solubility and dissolution rate of drugs are the main factors that determine their absorption, and then affect their oral bioavailability ([Elder et al., 2013]). Under the stimulation of cell activity and increased solubility, pharmacokinetic experiments were carried out to understand the drug exposure and provide a basis for further druggability of compound F8. In this study, compound F8 and F8·2HCl were administered in two different ways: tail vein injection (20 mg/kg) and gavage (100 mg/kg), and pharmacokinetic parameters were measured in Sprague-Dawley (SD) rats (Figures 3, 4).

[11] = system: HuH7; test: MTT cytotoxicity / anti-proliferation assay; type: cell-based; conditions: 72 h, read-out: IC50, cancer cell viability
[12] = system: MCF-7; test: MTT cytotoxicity / anti-proliferation assay; type: cell-based; conditions: Homo sapiens, MCF7, 72 h, MCF-7, MTT, read-out: IC50, cancer cell viability
[13] = system: HCT-116; test: MTT cytotoxicity / anti-proliferation assay; type: cell-based; conditions: Homo sapiens, HCT-116, 72 h, HCT-116, MTT, read-out: IC50, cancer cell viability
[14] = system: HCC-1937; test: MTT cytotoxicity / anti-proliferation assay; type: cell-based; conditions: Homo sapiens, HCC1937, 72 h, HCC-1937, MTT, read-out: IC50, cancer cell viability
[15] = Solubility in aqueous solution (pure water, normal saline); type: physicochemical
[16] = male, Sprague-Dawley, rat, plasma, iv, 20 mg/kg
[17] = male, Sprague-Dawley, rat, plasma, oral, 100 mg/kg, 100 mg/kg, route ip (methods: intragastric)

In the case of `N#CC1(c2ccc(NC(=O)c3cccnc3NCc3ccncc3)cc2)CCCC1` [Apatinib, apatinib, reference compound], the “tumor growth inhibition (TGI)” value ([1]; 37.5 mg/kg) is reported as 50.0%.
In the case of `O=C(NCc1ccc(NC(=O)c2cc(F)ccc2N2CCCC2)cc1)OCc1cccnc1` [F8], the IC50 [2] is listed as greater than 100 µM, the “tumor growth inhibition (TGI)” value ([1]; 75 mg/kg) is listed as 52.8% and the IC50 [3] is listed as 21.1 ± 0.74 µM. The IC50 [4] was 1.45 ± 0.12 µM, the IC50 [5] was 23.3 µM and the IC50 [6] was 53.8 ± 0.59 µM. For the same compound, the IC50 [7] was 0.26 ± 0.03 µM, the IC50 [8] was 10.7 µM and the IC50 [9] was 1.65 ± 0.15 µM. It also gave a Tmax ([10]; 100 mg/kg, route ip (methods: intragastric), 100 mg/kg) of 0.19 h, a peak plasma concentration ([10]; oral administration 100 mg/kg, 100 mg/kg) of 0.4 µg/mL and an AUC(0-inf) [10, 16] of 6990 ng·h/mL. The half-life [10, 16] was 3.09 h, the Cmax ([10]; male, Sprague-Dawley, rat, plasma, iv, 20 mg/kg, 20 mg/kg, iv) was 12100 ng/mL and the Tmax ([10]; male, Sprague-Dawley, rat, plasma, iv, 20 mg/kg, 20 mg/kg, iv, read-out: Tmax) was 0.03 h. It also gave an AUC(0-inf) [10, 17] of 1130 ng·h/mL, a half-life [10, 17] of 2.66 h and a Cmax [10, 17] of 400 ng/mL. It also gave a bioavailability ([10]; male, Sprague-Dawley, rat, plasma, oral, 100 mg/kg, oral 100 mg/kg vs iv 20 mg/kg, read-out: bioavailability) of 3.23%, an AUC(0-t) ([10]; male, Sprague-Dawley, rat, plasma, po, 100 mg/kg, area under the concentration-time curve (AUC0-t), oral administration 100 mg/kg, heading: area under the concentration-time curve) of roughly 1130 ng·h/mL and an IC50 [11] of 2.35 ± 0.29 µM. For the same compound, the IC50 [12] was 43.5 ± 0.36 µM, the IC50 [13] was 4.89 ± 0.35 µM and the IC50 [14] was 47.05 ± 0.07 µM. For the same compound, the “solubility in normal saline” value ([15]; normal saline, compared with pure water) was “not much different from pure water” and the “Solubility in aqueous solution” value ([15]; pure water) was “less than 1 mg/mL”.
